How the values were obtained:
[1] = test system: JAK1-dependent STAT6 phosphorylation downstream of IL-13 stimulation in TF-1 human erythroleukemia cells; experiment: JAK1 pathway assay in TF-1 cells (IL-13-pSTAT6, MSD); type: cell-based; details: Homo sapiens, TF-1, TF-1 cells, read-out: IL13-pSTAT6 EC50_TF-1
Summary of the method: (§1)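 TF-1 cells starved of GM-CSF overnight, assayed serum-free; BEAS-2B cells in complete growth medium. Lysate pSTAT6 measured by MSD; EC50 derived.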

[2] = test system: JAK1-dependent STAT6 phosphorylation downstream of IL-13 stimulation in BEAS-2B human bronchial epithelial cells; experiment: JAK1 pathway assay in BEAS-2B cells (IL-13-pSTAT6, MSD); type: cell-based; details: read-out: IL13-pSTAT6 EC50 (uM)_BEAS-2B
Summary of the method: as §1

[3] = Clearance assay: mouse intravenous (IV) clearance; type: in vivo; details: female BALB/c mice; for IV Mouse CL, % of liver blood flow: single IV dose of 1 mg/kg, clearance as % of mouse liver blood flow; for clearance: mouse, plasma, single IV dose of 1 mg/kg via the tail vein, read-out: IV Mouse CL
Source text: In certain instances high systemic clearance of a drug substance may be of benefit. For example, in the treatment of pulmonary diseases it may be beneficial to have high drug concentrations in the lung, with lower concentrations in the bloodstream or peripheral organs. In such cases, it may be advantageous to administer a drug substance with high systemic clearance via the inhaled delivery route. This approach may maximize pharmacologic activity of the drug substance in the lung while minimizing the possibility of on-target toxicity elsewhere in the body. The functional groups appended to the 5-chloro-2-difluoromethoxyphenyl pyrazolopyrimidine scaffold affect systemic clearance.
Female BALB/c mice were obtained from Charles River Labs (Hollister, Calif. USA). Twelve animals were given a single IV dose of 1 mg/kg of compounds via the tail vein. A representative dose solution was prepared as follows: the compound was dissolved in a mixture of 5% dimethylsulfoxide (DMSO), 35% polyethylene glycol (PEG 400), and 60% water (v/v/v), respectively, and administered at a dosing volume of 5 mL/kg. Mice weighed approximately 20-25 g at the start of the study. After intravenous administration of compounds, each animal was bled twice via retro-orbital and cardiac puncture. PK time points were collected at 2 min, 5 min, 15 min, 30 min, 1 hr, 2 hr, 4 hr, and 8 hr post-dose. Plasma samples were stored at approximately −80° C. until thawed for LC-MS/MS analysis. PK data analysis was performed on mean plasma concentration-time data and PK parameters were determined by non compartmental methods using WinNonlin® Enterprise, version 5.2.1 (Pharsight Corporation; Mountain View, Calif.).

[4] = biological target: isolated recombinant JAK1 kinase domain (Homo sapiens (Human), UniProt P23458); experiment: JAK1 enzyme assay (Caliper LabChip, peptide phosphorylation); type: biochemical; details: isolated recombinant JAK1 kinase domain, 25 μM ATP
Chain of isolated recombinant JAK1 kinase domain (P23458 875-1153): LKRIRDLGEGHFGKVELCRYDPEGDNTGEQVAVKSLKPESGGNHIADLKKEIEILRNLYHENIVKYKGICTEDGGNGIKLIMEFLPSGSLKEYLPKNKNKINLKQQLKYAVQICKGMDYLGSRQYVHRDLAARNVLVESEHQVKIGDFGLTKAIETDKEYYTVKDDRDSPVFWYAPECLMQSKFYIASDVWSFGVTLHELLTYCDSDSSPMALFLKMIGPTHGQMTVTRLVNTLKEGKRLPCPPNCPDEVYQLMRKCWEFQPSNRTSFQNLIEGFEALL

[5] = biological target: isolated recombinant JAK2 kinase domain (Homo sapiens (Human), UniProt O60674); experiment: JAK2 enzyme assay (Caliper LabChip, peptide phosphorylation); type: biochemical; details: 25 μM ATP
Chain of isolated recombinant JAK2 kinase domain (O60674 849-1124): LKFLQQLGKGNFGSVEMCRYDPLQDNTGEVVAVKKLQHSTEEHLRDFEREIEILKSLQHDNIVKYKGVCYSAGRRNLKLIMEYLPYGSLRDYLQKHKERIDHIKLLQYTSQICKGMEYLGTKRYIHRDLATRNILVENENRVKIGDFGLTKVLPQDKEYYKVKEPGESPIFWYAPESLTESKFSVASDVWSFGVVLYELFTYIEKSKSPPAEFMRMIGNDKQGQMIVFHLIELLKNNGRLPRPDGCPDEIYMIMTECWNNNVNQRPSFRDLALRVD

Row | Compound | EC50 [1] | EC50 [2] | IV Mouse CL, % of liver blood flow [3] | clearance [3] | Ki [4] | Ki [5]
1 | O=C(Nc1cn(CC(=O)N2CC=CCC2)nc1-c1cc(Cl)ccc1OC(F)F)c1cnn2cccnc12 [Example 284, N-[3-[5-chloro-2-(difluoromethoxy)phenyl]-1-[2-(3,6-dihydro-2H-pyridin-1-yl)-2-oxo-ethyl]pyrazol-4-yl]pyrazolo[1,5-a]pyrimidine-3-carboxamide] | 1.6 nM | 0.0125 µM | >100% | 219 mL/min/kg | 0.15 nM | 0.37 nM
2 | CN(Cc1ccccc1)C1CCN(C(=O)Cn2cc(NC(=O)c3cnn4cccnc34)c(-c3cc(Cl)ccc3OC(F)F)n2)CC1 [Example 98, N-[1-[2-[4-[benzyl(methyl)amino]-1-piperidyl]-2-oxo-ethyl]-3-[5-chloro-2-(difluoromethoxy)phenyl]pyrazol-4-yl]pyrazolo[1,5-a]pyrimidine-3-carboxamide] | 3.8 nM | 0.0381 µM | >100% | 178 mL/min/kg | 0.79 nM | 1.81 nM
3 | CN1C[C@@H]2CN(C(=O)Cn3cc(NC(=O)c4cnn5cccnc45)c(-c4cc(Cl)ccc4OC(F)F)n3)C[C@@H]2C1 [Example 3, Cis-pyrazolo[1,5-a]pyrimidine-3-carboxylic acid {3-(5-chloro-2-difluoromethoxyphenyl)1-[2-(5-methylhexahydropyrrolo[3,4-c]pyrrol-2-yl)-2-oxoethyl]-1H-pyrazol-4-yl}amide] | 16.7 nM | 0.0324 µM | >100% | 216 mL/min/kg | 0.79 nM | 0.81 nM
4 | CN1CCN(c2nc(-c3cc(Cl)ccc3OC(F)F)c(NC(=O)c3cnn4cccnc34)s2)CC1 [Example 205, Pyrazolo[1,5-a]pyrimidine-3-carboxylic acid [4-(5-chloro-2-difluoromethoxy-phenyl)-2-(4-methyl-piperazin-1-yl)-thiazol-5-yl]-amide] | 4.4 nM | 0.0338 µM | 51% | 46 mL/min/kg | 0.8 nM | 0.58 nM
5 | CN(CC(F)(F)c1ccccc1)C1CCN(C(=O)Cn2cc(NC(=O)c3cnn4cccnc34)c(-c3cc(Cl)ccc3OC(F)F)n2)CC1 [Example 102, N-[3-[5-chloro-2-(difluoromethoxy)phenyl]-1-[2-[4-[(2,2-difluoro-2-phenyl-ethyl)-methyl-amino]-1-piperidyl]-2-oxo-ethyl]pyrazol-4-yl]pyrazolo[1,5-a]pyrimidine-3-carboxamide] | 8.5 nM | 0.0347 µM | >100% | 140 mL/min/kg | 0.62 nM | 1.1 nM
6 | CCN1CCN(C(=O)Cn2cc(NC(=O)c3cnn4cccnc34)c(-c3cc(Cl)ccc3OC(F)F)n2)CC1 [Example 233, Pyrazolo[1,5-a]pyrimidine-3-carboxylic acid {3-(5-chloro-2-difluoromethoxy-phenyl)-1-[2-(4-ethyl-piperazin-1-yl)-2-oxo-ethyl]-1H-pyrazol-4-yl}-amide] | 10 nM | 0.0181 µM | >100% | 153 mL/min/kg | 0.78 nM | 1.43 nM
7 | Nc1nn2cccnc2c1C(=O)Nc1cn(C2CCNCC2)nc1-c1cc(Cl)ccc1OC(F)F [Example 2, 2-Amino-pyrazolo[1,5-a]pyrimidine-3-carboxylic acid [3-(5-chloro-2-difluoromethoxy-phenyl)-1-piperidin-4-yl-1H-pyrazol-4-yl]-amide] | 5.2 nM | 0.0195 µM | >100% | 580 mL/min/kg | 0.72 nM | 0.19 nM
8 | CN(CCC#N)C1CCN(C(=O)Cn2cc(NC(=O)c3cnn4cccnc34)c(-c3cc(Cl)ccc3OC(F)F)n2)CC1 [Example 63, Pyrazolo[1,5-a]pyrimidine-3-carboxylic acid [3-(5-chloro-2-difluoromethoxy-phenyl)-1-(2-{4-[(2-cyano-ethyl)-methyl-amino]-piperidin-1-yl}-2-oxo-ethyl)-1H-pyrazol-4-yl]-amide] | 5.7 nM | 0.0122 µM | >100% | 139 mL/min/kg | 0.34 nM | 0.7 nM
